In PubChem BioAssay (NCI):
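Protocol summary: plate cells (96-well), add compound at 5 concentrations, incubate 48 h, interpolate endpoints linearly. GI50 is the concentration that inhibits growth by half. TGI: concentration producing complete growth inhibition.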

Key:
Assay in all cases: NCI-60 cell line screen, 48 h
786-0 renal = tested on: 786-0 renal
A498 renal = tested on: A498 renal
A549 NSCLC = tested on: A549 NSCLC
ACHN renal = tested on: ACHN renal
BT-549 breast = tested on: BT-549 breast
CAKI-1 renal = tested on: CAKI-1 renal
CCRF-CEM leukemia = tested on: CCRF-CEM leukemia
COLO 205 colon = tested on: COLO 205 colon
DU-145 prostate = tested on: DU-145 prostate
EKVX NSCLC = tested on: EKVX NSCLC
HCC-2998 colon = tested on: HCC-2998 colon
HCT-116 colon = tested on: HCT-116 colon
HCT-15 colon = tested on: HCT-15 colon
HL-60(TB) leukemia = tested on: HL-60(TB) leukemia
HOP-62 NSCLC = tested on: HOP-62 NSCLC
HOP-92 NSCLC = tested on: HOP-92 NSCLC
HS 578T breast = tested on: HS 578T breast
HT29 colon = tested on: HT29 colon
IGROV1 ovarian = tested on: IGROV1 ovarian
K-562 leukemia = tested on: K-562 leukemia
KM12 colon = tested on: KM12 colon
LOX IMVI melanoma = tested on: LOX IMVI melanoma
M14 melanoma = tested on: M14 melanoma
MALME-3M melanoma = tested on: MALME-3M melanoma
MCF7 breast = tested on: MCF7 breast
MDA-MB-231 breast = tested on: MDA-MB-231 breast
MDA-MB-435 = tested on: MDA-MB-435
MDA-MB-468 breast = tested on: MDA-MB-468 breast
MOLT-4 leukemia = tested on: MOLT-4 leukemia
NCI-H226 lung = tested on: NCI-H226 lung
NCI-H23 lung = tested on: NCI-H23 lung
NCI-H460 lung = tested on: NCI-H460 lung
NCI-H522 lung = tested on: NCI-H522 lung
NCI/ADR-RES ovarian = tested on: NCI/ADR-RES ovarian
OVCAR-3 ovarian = tested on: OVCAR-3 ovarian
OVCAR-4 ovarian = tested on: OVCAR-4 ovarian
OVCAR-5 ovarian = tested on: OVCAR-5 ovarian
OVCAR-8 ovarian = tested on: OVCAR-8 ovarian
PC-3 prostate = tested on: PC-3 prostate
RPMI-8226 leukemia = tested on: RPMI-8226 leukemia
RXF 393 renal = tested on: RXF 393 renal
SF-268 CNS = tested on: SF-268 CNS
SF-295 CNS = tested on: SF-295 CNS
SF-539 CNS = tested on: SF-539 CNS
SK-MEL-2 melanoma = tested on: SK-MEL-2 melanoma
SK-MEL-28 melanoma = tested on: SK-MEL-28 melanoma
SK-MEL-5 melanoma = tested on: SK-MEL-5 melanoma
SK-OV-3 ovarian = tested on: SK-OV-3 ovarian
SN12C renal = tested on: SN12C renal
SNB-19 CNS = tested on: SNB-19 CNS
SNB-75 CNS = tested on: SNB-75 CNS
SR leukemia = tested on: SR leukemia
SW-620 colon = tested on: SW-620 colon
T-47D breast = tested on: T-47D breast
TK-10 renal = tested on: TK-10 renal
U251 CNS = tested on: U251 CNS
UACC-257 melanoma = tested on: UACC-257 melanoma
UACC-62 melanoma = tested on: UACC-62 melanoma
UO-31 renal = tested on: UO-31 renal

O=C(Nc1ccc(-c2ccc3c(c2)NC(=O)/C3=C\c2ccc[nH]2)cc1)Nc1ccc(Cl)c(C(F)(F)F)c1
GI50 (786-0 renal): 3.09 µM | TGI (786-0 renal): 10.2 µM | GI50 (A498 renal): 2.35 µM | TGI (A498 renal): 9.4 µM | GI50 (A549 NSCLC): 1.56 µM | TGI (A549 NSCLC): 3.56 µM | GI50 (ACHN renal): 3 µM | TGI (ACHN renal): 9.6 µM | GI50 (BT-549 breast): 2.05 µM | TGI (BT-549 breast): 6.15 µM | GI50 (CAKI-1 renal): 2.92 µM | TGI (CAKI-1 renal): 12.9 µM | GI50 (CCRF-CEM leukemia): 2.57 µM | TGI (CCRF-CEM leukemia): 9.6 µM | GI50 (COLO 205 colon): 2.82 µM | TGI (COLO 205 colon): 10.9 µM | GI50 (DU-145 prostate): 2.13 µM | TGI (DU-145 prostate): 4.99 µM | GI50 (EKVX NSCLC): 0.243 µM | TGI (EKVX NSCLC): 6.38 µM | GI50 (HCC-2998 colon): 2.18 µM | TGI (HCC-2998 colon): 6.15 µM | GI50 (HCT-116 colon): 1.78 µM | TGI (HCT-116 colon): 3.46 µM | GI50 (HCT-15 colon): 1.6 µM | TGI (HCT-15 colon): 4.04 µM | GI50 (HL-60(TB) leukemia): 3.27 µM | TGI (HL-60(TB) leukemia): 15 µM | GI50 (HOP-62 NSCLC): 2.09 µM | TGI (HOP-62 NSCLC): 8.75 µM | GI50 (HOP-92 NSCLC): 1.23 µM | TGI (HOP-92 NSCLC): 4.69 µM | GI50 (HS 578T breast): 2.64 µM | TGI (HS 578T breast): 16.1 µM | GI50 (HT29 colon): 2.56 µM | TGI (HT29 colon): 7.71 µM | GI50 (IGROV1 ovarian): 4.05 µM | TGI (IGROV1 ovarian): 17.4 µM | GI50 (K-562 leukemia): 2.54 µM | TGI (K-562 leukemia): 11.3 µM | GI50 (KM12 colon): 2.24 µM | TGI (KM12 colon): 10.6 µM | GI50 (LOX IMVI melanoma): 1.73 µM | TGI (LOX IMVI melanoma): 3.33 µM | GI50 (M14 melanoma): 3.47 µM | TGI (M14 melanoma): 14.4 µM | GI50 (MALME-3M melanoma): 3.78 µM | TGI (MALME-3M melanoma): 16.4 µM | GI50 (MCF7 breast): 0.18 µM | TGI (MCF7 breast): 1.63 µM | GI50 (MDA-MB-231 breast): 2.23 µM | TGI (MDA-MB-231 breast): 10.1 µM | GI50 (MDA-MB-435): 2 µM | TGI (MDA-MB-435): 4.67 µM | GI50 (MDA-MB-468 breast): 0.033 µM | TGI (MDA-MB-468 breast): 0.322 µM | GI50 (MOLT-4 leukemia): 2.48 µM | TGI (MOLT-4 leukemia): 11.4 µM | GI50 (NCI-H226 lung): 1.33 µM | TGI (NCI-H226 lung): 11.4 µM | GI50 (NCI-H23 lung): 1.12 µM | TGI (NCI-H23 lung): 3.12 µM | GI50 (NCI-H460 lung): 0.489 µM | TGI (NCI-H460 lung): 1.82 µM | GI50 (NCI-H522 lung): 1.54 µM | TGI (NCI-H522 lung): 3.67 µM | GI50 (NCI/ADR-RES ovarian): 2.93 µM | TGI (NCI/ADR-RES ovarian): 11.1 µM | GI50 (OVCAR-3 ovarian): 1.57 µM | TGI (OVCAR-3 ovarian): 3.62 µM | GI50 (OVCAR-4 ovarian): 1.24 µM | TGI (OVCAR-4 ovarian): 8.4 µM | GI50 (OVCAR-5 ovarian): 2.18 µM | TGI (OVCAR-5 ovarian): 10.5 µM | GI50 (OVCAR-8 ovarian): 2.17 µM | TGI (OVCAR-8 ovarian): 5.38 µM | GI50 (PC-3 prostate): 1.83 µM | TGI (PC-3 prostate): 6.69 µM | GI50 (RPMI-8226 leukemia): 1.56 µM | TGI (RPMI-8226 leukemia): 4.98 µM | GI50 (RXF 393 renal): 2.25 µM | TGI (RXF 393 renal): 5.34 µM | GI50 (SF-268 CNS): 1.94 µM | TGI (SF-268 CNS): 5.09 µM | GI50 (SF-295 CNS): 2.84 µM | TGI (SF-295 CNS): 10.2 µM | GI50 (SF-539 CNS): 1.82 µM | TGI (SF-539 CNS): 6.59 µM | GI50 (SK-MEL-2 melanoma): 3.48 µM | TGI (SK-MEL-2 melanoma): 14.2 µM | GI50 (SK-MEL-28 melanoma): 3.04 µM | TGI (SK-MEL-28 melanoma): 10.2 µM | GI50 (SK-MEL-5 melanoma): 5.56 µM | TGI (SK-MEL-5 melanoma): 18.8 µM | GI50 (SK-OV-3 ovarian): 2.56 µM | TGI (SK-OV-3 ovarian): 13.9 µM | GI50 (SN12C renal): 1.71 µM | TGI (SN12C renal): 3.53 µM | GI50 (SNB-19 CNS): 3.6 µM | TGI (SNB-19 CNS): 15.5 µM | GI50 (SNB-75 CNS): 2.64 µM | TGI (SNB-75 CNS): 17.4 µM | GI50 (SR leukemia): 2.13 µM | TGI (SR leukemia): 7.01 µM | GI50 (SW-620 colon): 1.88 µM | TGI (SW-620 colon): 3.89 µM | GI50 (T-47D breast): 0.29 µM | TGI (T-47D breast): 4.12 µM | GI50 (TK-10 renal): 1.43 µM | TGI (TK-10 renal): 7.55 µM | GI50 (U251 CNS): 1.64 µM | TGI (U251 CNS): 3.42 µM | GI50 (UACC-257 melanoma): 2.77 µM | TGI (UACC-257 melanoma): 9.01 µM | GI50 (UACC-62 melanoma): 2.62 µM | TGI (UACC-62 melanoma): 12.9 µM | GI50 (UO-31 renal): 1.75 µM | TGI (UO-31 renal): 14.3 µM
